Laboratory results from publication PMC7408072 (Pharmaceutics, 2020).
Peptide text beside a SMILES is read from it. * marks the point of attachment. 5TAMRA = CN(C)c1ccc2c(c1)Oc1cc(N(C)C)ccc1C21OC(=O)c2cc(C(=O)*)ccc21

Key:
[1] = system: monocultures of primary bovine BCECs; assay: Live cell peptide uptake; assay type: cell-based; conditions: 1 h, 37 °C, live cell imaging; 100 µM TAMRA-NR2B9c, 50 µM Tat peptides (method) / 100 µM (Figure 4 legend)
Experimental: BCECs were obtained from a batch of isolated capillary fragments and cultured as described in Section 2.2. Following trypsinization on day 5, the BCECs were re-suspended in differentiation medium and 90,000/cm^2 seeded on collagen- and fibronectin-coated (both 10 µg/mL in PBS) LabTek® microscope slides (Merck, Søborg, Denmark). The cells were left in the incubator (10% CO2, 37 °C) for 48 h prior to use. […] The test solutions were removed and pre-warmed media containing 300 nM Hoechst and Lysotracker® (1:20,000; Thermo Fischer Scientific, Bedford, MA, USA) applied to the cells for 10 min at 37 °C. The cells were gently washed twice in 37 °C hHBSS and immediately imaged in FluoBrite medium (Thermo Fischer Scientific, Bedford, MA, USA). Images were captured using an Olympus IX-83 fluorescent microscope (Olympus, Hamburg, Germany) equipped with a Yokogawa CSU-X spinning disc unit (Yokogawa, Tokyo, Japan) and Andor iXon Ultra 897 camera (Oxford Instruments, Abingdon, Great Britain) using cellSens software (Olympus, Hamburg, Germany).

[2] = system: bovine BCEC monolayers co-cultured with rat astrocytes; assay: Transport, membrane adherence and cell uptake quantified by TAMRA fluorescence (bovine model); assay type: in vitro ADME; conditions: 3 h, 37 °C, N = 2-3, n = 3; for peptide adhering to the cell surface / peptide taken up by the cells (endothelial cells and astrocytes): 100 µM peptide, TAMRA fluorescence 542/568 nm, mean ± SEM; for peptide adhering to the cell surface: acetic acid buffer pH 3 wash fraction; for peptide taken up by the cells (endothelial cells and astrocytes): lysate fraction; for peptide transported across the barrier (abluminal content): 100 µM peptide luminal, 90 rpm, medium with 10% FBS, abluminal TAMRA fluorescence, compared to TAMRA-NR2B9c
Experimental: Transport across bovine or mouse BCEC monolayers co-cultured with rat astrocytes was carried out over 3 h at 37 °C with horizontal shaking (90 rpm). TEER was measured at room temperature using an Endohm 12 cup (World Precision Instruments, Sarasota, FL, USA) connected to a Millicell-ERS device (Millipore, Bedford, MA, USA). TEER was measured before application of the peptides and after each experiment. The bovine model had initial TEER values ranging from 771 to 1332 Ω·cm^2, whereas the mouse model had initial TEER values ranging from 136 to 217 Ω·cm^2.
TAMRA fluorescence was measured using a NovoStar fluorescence plate reader (BMG Labtech, Offenburg, Germany) with excitation/emission set to 542/568 nm. The transported peptide was calculated using standard curves ranging from 31 nM to 2 µM. All peptide standard curves were subjected to 3 h of incubation at 37 °C with horizontal shaking (90 rpm) in differentiation media withdrawn from BCECs co-cultured with rat astrocytes.
Two filters from each BCEC batch were subjected to quantification of the TAMRA-peptide adhering to the BCEC plasma membrane and peptide taken up by the BCECs and astrocytes. […] The peptide solutions were removed from the cells and the filters washed thrice with 37 °C hHBSS. To isolate the peptide fraction adhering to the plasma membrane, the BCECs were placed on ice and incubated with 300 µL ice-cold acetic acid buffer ([…], 1% BSA, pH 3) for 5 min. The acetic acid buffer solution was gently pipetted up and down twice prior to collection of 100 µL samples into a black clear-bottom 96-well plate for analysis. The remaining acetic acid buffer solution was removed from the luminal chamber and the cells washed thrice with ice-cold hHBSS. To isolate the peptide fraction being taken up by the BCECs and astrocytes, the filter inserts were cut out and 150 µL of ice-cold lysis buffer (10 mM Tris-HCl, 0.25 M sucrose, 1 mM EDTA, 1 mM ethylene-bis(oxyethylenenitrilo)tetraacetic acid tetrasodium (EGTA), 2% Tergitol™, Complete® inhibitor tablet) added prior to incubation for 10 min on ice. The cells were homogenized using a pellet pestle (Merck, St. Louis) and subjected to centrifugation at 10,000× g at 4 °C for 10 min. The 100 µL supernatant was transferred into a black clear-bottom 96-well plate. TAMRA fluorescence was measured using a NovoStar fluorescence plate reader (BMG Labtech, Offenburg, Germany) with excitation/emission set to 542/568 nm. The molar amount of membrane-adhered peptide and peptide taken up by the cells was calculated using standard curves freshly prepared in acetic acid buffer and lysis buffer, respectively, in concentrations ranging from 40 nM to 2.5 µM.

[3] = system: bovine BCECs co-cultured with rat astrocytes; assay: Peptide uptake into endothelial cells and astrocytes by confocal microscopy after fixation (bovine BBB model); assay type: cell-based; conditions: fixed cells; for peptide uptake in the astrocytes, 3 h: 100 µM peptide applied luminally; for peptide uptake in the astrocytes, 3 h / peptide uptake in the endothelial cells, 3 h: TAMRA fluorescence, confocal microscopy; for peptide uptake in the endothelial cells, 3 h / peptide uptake in the astrocytes, 15 min / peptide uptake in the endothelial cells, 15 min: 100 µM peptide; for peptide uptake in the astrocytes, 15 min / peptide uptake in the endothelial cells, 15 min: confocal microscopy (Figure S3)
Experimental: […] TEER was measured at room temperature using an Endohm 12 cup (World Precision Instruments, Sarasota, FL, USA) connected to a Millicell-ERS device (Millipore, Bedford, MA, USA). TEER was measured before application of the peptides and after each experiment. The bovine model had initial TEER values ranging from 771 to 1332 Ω·cm^2, whereas the mouse model had initial TEER values ranging from 136 to 217 Ω·cm^2.
To visualize the TAMRA-peptide taken up by the endothelial cells and astrocytes, the remaining filters (one per batch) from the permeation study using the in vitro bovine BBB model were prepared for confocal microscopy. After removal of the peptide solutions, the cells were fixed with 3% paraformaldehyde in PBS for 15 min at room temperature with horizontal shaking (90 rpm). The cells were washed thrice with PBS prior to permeabilization in 0.1% Triton X-100 in PBS for 5 min and blocking in 2% BSA in PBS for 30 min at room temperature with horizontal shaking (90 rpm). The filter inserts were cut out, divided into smaller pieces, and transferred to a 48-well plate to stain zonula ocludens-1 (ZO-1) in the BCECs and F-actin in the astrocytes. Filter pieces with BCECs facing upwards were incubated with a primary antibody directed against ZO-1 (1:100 in PBS with 2% BSA; Thermo Fischer Scientific, Bedford, MA, USA, no. 617300) for 2 h at room temperature. Subsequently, the filters were washed thrice for 5 min in PBS with 2% BSA prior to 30 min incubation with an Alexa-488-conjugated secondary antibody (1:100 in PBS with 2% BSA; Thermo Fischer Scientific, Bedford, MA, USA, no. A11008). Filter pieces with astrocytes facing upwards were incubated with Alexa-488-conjugated phalloidin (1:133 in PBS with 2% BSA; Thermo Fischer Scientific, Bedford, MA, USA) for 30 min at room temperature and washed thrice for 5 min in PBS with 2% BSA. The filter pieces were mounted on glass slides under coverslips using Immu-Mount™ mounting media and imaged using single wavelength excitation a Zeiss 510 laser-scanning confocal microscope (Carl Zeiss, Jena, Germany).

SMILES | peptide uptake into live BCECs [1] | peptide adhering to the cell surface [2] | peptide taken up by the cells (endothelial cells and astrocytes) [2] | peptide uptake in the astrocytes, 3 h [3] | peptide uptake in the endothelial cells, 3 h [3] | peptide transported across the barrier (abluminal content) [2] | peptide uptake in the astrocytes, 15 min [3] | peptide uptake in the endothelial cells, 15 min [3]
CC[C@H](C)[C@H](NC(=O)[C@H](CO)NC(=O)[C@H](CO)NC(=O)[C@H](CC(C)C)NC(=O)[C@H](CCCCN)NC(=O)c1ccc2c(c1)C(=O)OC21c2ccc(N(C)C)cc2Oc2cc(N(C)C)ccc21)C(=O)N[C@@H](CCC(=O)O)C(=O)N[C@@H](CO)C(=O)N[C@@H](CC(=O)O)C(=O)N[C@H](C(=O)O)C(C)C [TAMRA-NR2B9c] (5TAMRA-KLSSIESDV-OH) | No uptake | Minute amounts | Minute amounts | not observed | not observed |  |  | 
CC[C@H](C)[C@H](NC(=O)CCOCCOCCN(CCOCCOCCC(=O)N[C@H](C(=O)N[C@@H](CCC(=O)O)C(=O)N[C@H](C(=O)N[C@@H](CC(=O)O)C(=O)N[C@H](C(=O)O)C(C)C)[C@@H](C)O)[C@@H](C)CC)C(=O)[C@H](CCCNC(=N)N)NC(=O)[C@H](CCCNC(=N)N)NC(=O)[C@H](CCCNC(=N)N)NC(=O)[C@H](CCC(N)=O)NC(=O)[C@H](CCCNC(=N)N)NC(=O)[C@H](CCCNC(=N)N)NC(=O)[C@H](CCCCN)NC(=O)[C@H](CCCCN)NC(=O)[C@H](CCCNC(=N)N)NC(=O)CNC(=O)[C@H](Cc1ccc(O)cc1)NC(=O)c1ccc2c(c1)C(=O)OC21c2ccc(N(C)C)cc2Oc2cc(N(C)C)ccc21)C(=O)N[C@@H](CCC(=O)O)C(=O)N[C@H](C(=O)N[C@@H](CC(=O)O)C(=O)N[C@H](C(=O)O)C(C)C)[C@@H](C)O [TAMRA-Tat-N-dimer] | taken up into vesicular structures to a similar extent | Minute amounts | Minute amounts | not in the astrocytes | low level | No significant difference | not in the astrocytes | Minor uptake
CC[C@H](C)[C@H](NC(=O)[C@H](CO)NC(=O)[C@H](CO)NC(=O)[C@H](CC(C)C)NC(=O)[C@H](CCCCN)NC(=O)[C@H](CCCNC(=N)N)NC(=O)[C@H](CCCNC(=N)N)NC(=O)[C@H](CCCNC(=N)N)NC(=O)[C@H](CCC(N)=O)NC(=O)[C@H](CCCNC(=N)N)NC(=O)[C@H](CCCNC(=N)N)NC(=O)[C@H](CCCCN)NC(=O)[C@H](CCCCN)NC(=O)[C@H](CCCNC(=N)N)NC(=O)CNC(=O)[C@H](Cc1ccc(O)cc1)NC(=O)c1ccc2c(c1)C(=O)OC21c2ccc(N(C)C)cc2Oc2cc(N(C)C)ccc21)C(=O)N[C@@H](CCC(=O)O)C(=O)N[C@@H](CO)C(=O)N[C@@H](CC(=O)O)C(=O)N[C@H](C(=O)O)C(C)C [TAMRA-Tat-NR2B9c] (5TAMRA-YGRKKRRQRRRKLSSIESDV-OH) | taken up into vesicular structures to a similar extent | Significantly larger amounts | Significantly larger amounts | observed in both cell types | observed in both cell types | to a greater extent than TAMRA-NR2B9c | uptake | uptake
CN(C)c1ccc2c(c1)Oc1cc(N(C)C)ccc1C21OC(=O)c2cc(C(=O)N[C@@H](Cc3ccc(O)cc3)C(=O)NCC(=O)N[C@@H](CCCNC(=N)N)C(=O)N[C@@H](CCCCN)C(=O)N[C@@H](CCCCN)C(=O)N[C@@H](CCCNC(=N)N)C(=O)N[C@@H](CCCNC(=N)N)C(=O)N[C@@H](CCC(N)=O)C(=O)N[C@@H](CCCNC(=N)N)C(=O)N[C@@H](CCCNC(=N)N)C(=O)N[C@@H](CCCNC(=N)N)C(=O)O)ccc21 [TAMRA-Tat] | taken up into vesicular structures to a similar extent | Significantly larger amounts | Significantly larger amounts | observed in both cell types | observed in both cell types | to a greater extent than TAMRA-NR2B9c | uptake | uptake
